Data on one compound can be found in US20150044244A1, “COMBINED FACILITATOR, ANTIGEN AND DNA VACCINE FOR PREVENTING AND TREATING AUTOIMMUNE DISEASES” (BEIJING ADVANCCINE BIOTECHNOLOGY CO. LTD., priority 2011, published 2015).

This test relates to naive CD4+CD25− T cells. Briefly: In vitro induction of iTregs by DCreg with cytokine blockade. Format: cell-based, mice. As to conditions: blockade during co-culture (stage 1). How it is done:
In vitro T cell priming assays. To generate CD4^+CD25^−Foxp3^+ cells in vitro, Naive CD11c^+ dendritic cells (2×10^5) were cultured in 6-well, and stimulated with pVAX-Derp1 (10 μg/ml) plus Derp1 peotein (10 μg/ml) in the present of anti-IL10 or TGF-β for 48 hrs. Three groups of dendritic cells pretreated were added to culture medium with naive CD4^+CD25^− T cells (1×10^6) in RPMI 1640 each 48 hrs for 3 times. And then GFP expression in CD4^+CD25^− T cells were analyzed by FACS. To check the roles of cytokines during DCreg induce iTregs, we co-cultured CD11c^+ DC pretreated with pVAX-Derp1 (10 μg/ml) plus Derp1 peotein (10 μg/ml) with naive T cells, synchronously, plus anti-IL-10, anti-TGF-β or TGF-β receptor inhibitor, SB-525334 (14.3 nM) each 48 hrs for 3 times. […]
As reported, blockade of TGF-β and IL-10 could demolish the development and suppressive function of iTregs. […] The roles of TGF-β and IL-10 were detected during the induction of iTregs by DCreg in vitro. GFP expression in CD4^+CD25^− T cells was detected after 72 hrs of co-culture with CD11C^+ DCreg 3 times each two days in the presence of anti-IL-10 or anti-TGF-β as stage 1 in FIG. 13A. […]

Consider `Cc1cccc(-c2[nH]c(C(C)(C)C)nc2-c2ccc3nccnc3c2)n1` [SB-525334], for which the “generation of CD4+CD25−GFP+ iTregs by DCreg” value is “could decrease the iTreg induction”.
